Experimental data as given in patent US6635641B2 (Agouron Pharmaceuticals, Inc., priority 2000, dated 2003).
Where a name gives a salt, the structure may show the parent alone. Read-outs that look alike come from different tables or passages of the source. Values belong to the compound of their own block, whether it stands above or below them.

Experiments:
[1] = target: T1, unphosphorylated VEGF-R2Δ50 (FLVK) (Homo sapiens, UniProt P35968, DEL940-989/E990V); experiment: VEGF-R2 coupled spectrophotometric assay, unphosphorylated construct (FLVK); format: biochemical; settings: for FLVK percent inhibition: 0.05 µM; for inhibition at 0.05 µM: @ 50 nM, read-out: FLVK percent inhibition;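 as to all read-outs here: Baculovirus-expressed cytosolic kinase domain, ADP formation linked via pyruvate kinase and lactate dehydrogenase to NADH oxidation, read as falling absorbance at 340 nm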
T1 construct: VEGF-R2Δ50 contains residues 806-939 and 990-1171; made in house; host or cells: baculovirus/insect cells

[2] = target: T2, phosphorylated VEGF-R2Δ50 (FLVK-P) (Homo sapiens, UniProt P35968, DEL940-989/E990V); experiment: VEGF-R2 coupled spectrophotometric assay, phosphorylated construct (FLVK-P); format: biochemical; settings: for inhibition at 0.05 µM: @ 50 nM; for inhibition at 0.05 µM / inhibition at 5 µM / inhibition at 1 µM: read-out: FLVK-P percent inhibition
T2 construct: VEGF-R2Δ50 contains residues 806-939 and 990-1171; made in house; host or cells: baculovirus/insect cells
Source text: A construct (VEGF-R2Δ50) of the cytosolic domain of human vascular endothelial growth factor receptor 2 (VEGF-R2) lacking the 50 central residues of the 68 residues of the kinase insert domain was expressed in a baculovirus/insect cell system. Of the 1356 residues of full-length VEGF-R2, VEGF-R2Δ50 contains residues 806-939 and 990-1171, and also one point mutation (E990V) within the kinase insert domain relative to wild-type VEGF-R2. See commonly assigned, co-pending U.S. patent application Ser. No. 09/390,326, filed Sep. 7, 1999, incorporated by reference herein, for discussion of VEGF constructs and expression systems. Autophosphorylation of the purified construct was performed by incubation of the enzyme at a concentration of 4 μM in the presence of 3 mM ATP and 40 mM MgCl2 in 100 mM Hepes, pH 7.5, containing 5% glycerol and 5 mM DTT, at 4° C. for 2 h. […] See Parast et al., Biochemistry, 37, 16788-16801 (1998).
The production of ADP from ATP that accompanies phosphoryl transfer was coupled to oxidation of NADH using phosphoenolpyruvate (PEP) and a system having pyruvate kinase (PK) and lactic dehydrogenase (LDH). The oxidation of NADH was monitored by following the decrease of absorbance at 340 nm (e340=6.22 cm^−1 mM^−1) using a Beckman DU 650 spectrophotometer. Assay conditions for phosphorylated VEGF-R2Δ50 (indicated as FLVK-P in the tables below) were the following: 1 mM PEP; 250 μM NADH; 50 units of LDH/mL; 20 units of PK/mL; 5 mM DTT; 5.1 mM poly(E4Y1); 1 mM ATP; and 25 mM MgCl2 in 200 mM Hepes, pH 7.5. Assay conditions for unphosphorylated VEGF-R2Δ50 (indicated as FLVK in the tables) were the following: 1 mM PEP; 250 μM NADH; 50 units of LDH/mL; 20 units of PK/mL; 5 mM DTT; 20 mM poly(E4Y1); 3 mM ATP; and 60 mM MgCl2 and 2 mM MnCl2 in 200 mM Hepes, pH 7.5. Assays were initiated with 5 to 40 nM of enzyme. Ki values were determined by measuring enzyme activity in the presence of varying concentrations of test compounds. The data were analyzed using Enzyme Kinetic and Kaleidagraph software.

[3] = test system: human umbilical vein endothelial cells (HUVEC); experiment: HUVEC proliferation assay (VEGF-stimulated, MTT); format: cell-based; settings: Homo sapiens, HUVEC; read-out: HUVEC IC50
Protocol: This assay determines the ability of a test compound to inhibit the growth factor-stimulated proliferation of human umbilical vein endothelial cells (“HUVEC”). HUVEC cells (passage 3-4, Clonetics, Corp.) were thawed into EGM2 culture medium (Clonetics Corp) in T75 flasks. Fresh EGM2 medium was added to the flasks 24 hours later. Four or five days later, cells were exposed to another culture medium (F12K medium supplemented with 10% fetal bovine serum (FBS), 60 μg/ml endothelial cell growth supplement (ECGS), and 0.1 mg/ml heparin). Exponentially-growing HUVEC cells were used in experiments thereafter. Ten to twelve thousand HUVEC cells were plated in 96-well dishes in 100 μl of rich, culture medium (described above). The cells were allowed to attach for 24 hours in this medium. The medium was then removed by aspiration and 105 μl of starvation media (F12K+1% FBS) was added to each well. After 24 hours, 15 μl of test agent dissolved in 1% DMSO in starvation medium or this vehicle alone was added into each treatment well; the final DMSO concentration was 0.1%. One hour later, 30 μl of VEGF (30 ng/ml) in starvation media was added to all wells except those containing untreated controls; the final VEGF concentration was 6 ng/ml. Cellular proliferation was quantified 72 hours later by MTT dye reduction, at which time cells were exposed for 4 hours MTT (Promega Corp.). Dye reduction was stopped by addition of a stop solution (Promega Corp.) and absorbance at 595 λ was determined on a 96-well spectrophotometer plate reader.

T2 sequence (P35968 with tags, fused parts or gaps DEL940-989/E990V limits assumed): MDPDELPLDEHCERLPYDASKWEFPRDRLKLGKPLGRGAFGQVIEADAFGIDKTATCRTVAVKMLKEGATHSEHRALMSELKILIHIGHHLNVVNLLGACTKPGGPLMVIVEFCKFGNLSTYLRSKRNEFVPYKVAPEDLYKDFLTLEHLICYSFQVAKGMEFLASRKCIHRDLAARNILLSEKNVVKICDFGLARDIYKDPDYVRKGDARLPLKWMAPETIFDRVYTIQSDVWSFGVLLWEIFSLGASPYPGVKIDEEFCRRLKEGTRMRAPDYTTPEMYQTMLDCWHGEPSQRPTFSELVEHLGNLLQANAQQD
T1 sequence (P35968 with tags, fused parts or gaps DEL940-989/E990V limits assumed): as above

Compound: 5-{2-[3-(Piperazin-1-yl-trifluoromethyl-phenylcarbamoyl)-phenyl]-ethyl}nicotinic acid methyl ester dihydrochloride [CC-2]
FLVK percent inhibition [1]: 30% @

inhibition at 0.05 µM [1]: 30%
Compound: CCC(C(=O)Nc1cccc(CSc2ncnc3[nH]ncc23)c1)c1ccccc1C (racemic) [Example V-15]

Compound: Cl.Cl.NC(=O)c1cncc(CCc2cccc(C(=O)Nc3ccc(N4CCNCC4)c(C(F)(F)F)c3)c2)c1 [CC-1, 5-{2-[3-(Piperazin-1-yl-trifluoromethyl-phenylcarbamoyl)-phenyl]-ethyl}-nicotinamide dihydrochloride]
FLVK percent inhibition [1]: 20% @

Ki [2]: 0.026 µM
Compound: CC(C)c1cccc(NC(=O)c2cccc(CSc3cnccn3)c2)c1 [Example A-7, N-(3-Isopropylphenyl)-3-[(pyrazin-2-yl)sulfanylmethyl]benzamide]
IC50 [3]: > 0.7 µM

Compound: COc1ccc(Nc2cc(CCc3cccc(C(=O)Nc4ccc(N5CCN(C(=O)OC(C)(C)C)CC5)c(C(F)(F)F)c4)c3)[nH]n2)cn1 [Example G-9, 3-{2-[5-(6-Methoxypyridin-3-yl)amino-2H-pyrazol-3-yl]-ethyl}-N-[4-(4-t-butoxycarbonylpiperazin-1-yl)-3-trifluoromethylphenyl]benzamide]
Ki [1]: 0.0025 µM

Ki [2]: 0.2 µM
Compound: O=C(Nc1ccc2ccccc2c1)c1cccc(OCc2cccnc2)c1 [Example K-6, N-(Naphthalen-2-yl)-3-(pyridin-3-yl)methoxybenzamide]

Ki [2]: 0.122 µM
Compound: C=CCn1ccc2cc(NC(=O)c3cccc(OCc4cccnc4)c3)ccc21 [Example K-7, N-(1-Allyl-1H-indol-5-yl)-3-(pyridin-3-yl)methoxy-benzamide]

Ki [2]: 0.707 µM
Compound: O=C(Nc1ccc2ncccc2c1)c1cccc(OCc2cccnc2)c1 [Example K-8, 3-(Pyridin-3-yl)methoxy-N-quinolin-6-yl-benzamide]

inhibition at 0.05 µM [1]: 13%
Compound: O=C(Nc1cccc2c1OC(F)(F)O2)c1cccc(CCc2cncc3ccccc23)c1 [Example O-2, N-(2,2-Difluoro-benzo[1,3]dioxol-4-yl)-3-(2-isoquinolin-4-yl-ethyl)-benzamide trifluoro-acetic acid salt]

Ki [1]: 0.0058 µM
Compound: CC1CCc2cc(NC(=O)c3ccc(F)c(OCc4cncc5ccccc45)c3)ccc2N1 (centres unmarked) [Example O-3, 4-Fluoro-N-(2-methyl-1,2,3,4-tetrahydroquinolin-6-yl)-3-(isoquinolin-4-yl-methoxy)-benzamide bistrifluoroacetic acid salt]

inhibition at 0.05 µM [2]: 49%
Compound: C=CCc1cc(NC(=O)c2cccc(OCc3cncc4ccccc34)c2)cc(CC=C)c1C [Example R-1, N-(3,5-Diallyl-4-methyl-phenyl)-3-(isoquinolin-4-ylmethoxy)-benzamide]

inhibition at 5 µM [2]: 16%
Compound: O=C(NNc1ccc(C(F)(F)F)cc1)c1cccc(OCc2cncc3ccccc23)c1 [Example R-6, 3-(Isoquinolin-4-ylmethoxy)-benzoic acid N′-(4-trifluoromethyl-phenyl)hydrazide]

Ki [2]: 0.325 µM
Compound: O=C(NOCc1ccccc1)c1cccc(OCc2cncc3ccccc23)c1 [Example R-7, N-Benzyloxy-3-(isoquinolin-4-ylmethoxy)-benzamide]

inhibition at 5 µM [2]: 4%
Compound: O=C(NNc1ccccc1)c1cccc(OCc2cncc3ccccc23)c1 [Example R-8, 3-(Isoquinolin-4-ylmethoxy)-benzoic acid N′-phenyl-hydrazide]

inhibition at 1 µM [2]: 9%
Compound: Cc1cc(C)c2ccc(NC(=O)c3cccc(OCc4cncc5ccccc45)c3)nc2n1 [Example R-9, N-(5,7-dimethyl[1,8]naphthydrin-2-yl)-3-(isoquinolin-4-ylmethoxy)-benzamide]

inhibition at 0.05 µM [1]: 42%
Compound: O=C(Nc1ccc(-n2ccnc2)c(C(F)(F)F)c1)c1ccc(F)c(OCc2cccnc2)c1 [Example R-21, 4-Fluoro-N-(4-imidazol-1-yl-3-trifluoromethyl-phenyl)-3-(pyridin-3-ylmethoxy)-benzamide]

inhibition at 0.05 µM [1]: 50%
Compound: O=C(Nc1ccc(-n2cncn2)c(C(F)(F)F)c1)c1ccc(F)c(OCc2cccnc2)c1 [Example R-23, 4-Fluoro-3-(pyridin-3-ylmethoxy)-N-(4-[1,2,4]triazol-1-yl-3-trifluoromethyl-phenyl)-benzamide]

inhibition at 0.05 µM [1]: 62%
Compound: O=C(Nc1cc(Cl)c(-n2ccnc2)c(Cl)c1)c1ccc(F)c(OCc2cccnc2)c1 [Example R-24, N-(3,5-Dichloro-4-imidazol-1-yl-phenyl)-4-fluoro-3-(pyridin-3-ylmethoxy)-benzamide]

Compound: O=C(Nc1ccccc1)c1cccc(CCc2cncc3ccccc23)c1 [Example S-1, 3-(2-Isoquinolin-4-yl-ethyl)-N-phenyl-benzamide]
inhibition at 1 µM [2]: 2%

inhibition at 1 µM [2]: 28%
Compound: CC1CC(NC(=O)c2cccc(CCc3cncc4ccccc34)c2)CC(C)(C)C1 (centres unmarked) [Example S-2, 3-(2-Isoquinolin-4-yl-ethyl)-N-(3,3,5-trimethyl-cyclohexyl)-benzamide]

inhibition at 0.05 µM [2]: 20%
Compound: Cc1ccc2cc(NC(=O)c3cccc(CCc4cncc5ccccc45)c3)ccc2n1 [Example S-4, 3-(2-Isoquinolin-4-yl-ethyl)-N-(2-methyl-quinolin-6-yl)-benzamide]
IC50 [3]: > 0.3 µM

Ki [2]: 0.0042 µM
Compound: Cc1c(Br)cc(NC(=O)c2cccc(CCc3cncc4ccccc34)c2)cc1Br [Example S-5, N-(3,5-Dibromo-4-methyl-phenyl)-3-(2-isoquinolin-4-yl-ethyl)-benzamide]
IC50 [3]: > 0.3 µM

inhibition at 0.05 µM [2]: 6%
Compound: Cc1cc(C)nc(NC(=O)c2cccc(CCc3cncc4ccccc34)c2)c1 [Example S-6, N-(4,6-Dimethyl-pyridin-2-yl)-3-(2-isoquinolin-4-yl-ethyl)-benzamide]

Ki [1]: 0.0014 µM
Compound: Cc1cc(NC(=O)c2cc(CCc3cncc4ccccc34)c(F)cc2F)ccc1C(C)C [Example S-8, 2,4-Difluoro-N-(4-isopropyl-3-methyl-phenyl)-5-(2-isoquinolin-4-yl-ethyl)-benzamide]

Ki [2]: 0.0136 µM
Compound: Cc1cc(NC(=O)c2cc(CCc3cncc4ccccc34)ccc2F)ccc1C(C)C [Example T-1, 2-Fluoro-N-(4-isopropyl-3-methyl-phenyl)-5-(2-isoquinolin-4-yl-ethyl)-benzamide]

Ki [2]: 0.068 µM
Compound: Cc1ccc2cc(NC(=O)c3cccc(CCc4cccnc4)c3)ccc2n1 [Example U-1, N-(2-Methyl-quinolin-6-yl)-3-(2-pyridin-3-yl-ethyl)-benzamide hydrochloride]

Ki [1]: 0.002 µM
Compound: Cc1ccc(C(=O)Nc2cccc(CSc3ncnc4[nH]ncc34)c2)cc1Br [Example V-1]

inhibition at 1 µM [2]: 42%
Compound: COc1cc(C(=O)Nc2cccc(CSc3ncnc4[nH]ncc34)c2)ccc1O [Example V-3, N-{3-[(1H-pyrazolo[3,4-d]-pyrimidin-4-yl)sulfanylmethyl]phenyl}-(4-hydroxy-3-methoxy)benzamide]

Ki ([1]; unphosphorylated VEGF-R2 construct): 0.0014 µM
Compound: CC(C)(C)c1ccc(C(=O)Nc2cccc(CSc3ncnc4[nH]ncc34)c2)cc1 [Example V-5, N-{3-[(1H-pyrazolo[3,4-d]-pyrimidin-4-yl)sulfanylmethyl]phenyl}-4-t-butylbenzamide]
